Laboratory results from PMC10535880, “Caco-2 Cell Sheet Partially Laminated with HT29-MTX Cells as a Novel In Vitro Model of Gut Epithelium Drug Permeability” (Pharmaceutics, 2023).
Like-named read-outs stand apart in the source and are kept apart here.

Legend:
HT29-MTX-E12 cells = test system: HT29-MTX-E12 cells; set-up: method as in PMID 23869232; conditions: added during the first six days of semi-wet interface with mechanical stimulation; 28 days of incubation; without addition 3–5 μm; cited from earlier work
[1] = test system: Caco-2/HT29-MTX coculture model
Experimental: (§1) When preparing the partially laminated model, a Caco-2 monolayer with a TEER value ≥ 2000 Ω·cm^2 was formed first, and HT29-MTX cells were then laminated onto the Caco-2 monolayer at ratios of 1:9, 3:7, and 5:5, followed by incubation for the predetermined time. As for the coculture model, Caco-2 and HT29-MTX cells were seeded simultaneously in the different ratios and incubated for the predetermined time to form a hybrid monolayer.
(§2) Briefly, the culture medium on both sides of the Transwell® insert was replaced with HBSS and washed twice with prewarmed HBSS. […] The Papp coefficients of the model drugs were calculated using the following equation [19, 21]:(1) Papp=dQ/dt×1/A.C0 where dQ/dt is the velocity of solutes transported across the culture cell sheet in time, C0 is the concentration of the solute in the apical compartment at time zero, and A is the cross-sectional area of the cell sheet in contact with the apical solution.

[2] = test system: Caco-2/HT29-MTX partially laminated model
Experimental: In the short-term culture model, Caco-2 monolayers were prepared according to the protocol of the Corning® BioCoat^TM Intestinal Epithelial Cell Environment Kit (Corning Inc., Corning, NY, USA) with slight modifications with reference to the procedure reported by Yamashita et al. [20]. Briefly, Caco-2 cells were seeded at a density of 1 × 10^5 cells/insert onto 24-well Transwell® inserts (0.4 μm pore size, Corning Inc.) using a basal seeding medium. After 24 h of incubation (37 °C, 5% CO2), the basal seeding medium was replaced with the enterocyte differential medium. After an additional 72 h of incubation, a cell monolayer was formed, and the integrity was evaluated via TEER using an epithelial volt-ohmmeter (EVOM2, World Precision Instruments Inc., Sarasota, FL, USA). In the long-term culture model, Caco-2 cells were seeded at a density of 1 × 10^4 cells/insert onto 24-well Transwell® inserts using DMEM containing 10% FBS, 1% nonessential amino acids, and 1% penicillin-streptomycin for 21 days.
as §1, §2
The supernatant was collected as a sample for LC-MS/MS. […]

Row | Molecule | mucus layer thickness (HT29-MTX-E12 cells) | Papp compared to that in the Caco-2 monolayer model [1] | Papp compared to that of the HT29-MTX monolayer ([1]; independent of the Caco-2:HT29-MTX ratio) | Papp compared to that in the Caco-2 monolayer ([2]; 5:5 ratio of Caco-2/HT29-MTX) [times] | Papp compared to that in the Caco-2 monolayer ([2]; 7:3 ratio of Caco-2/HT29-MTX) [times] | Papp compared to that in the Caco-2 monolayer ([2]; 9:1 ratio of Caco-2/HT29-MTX)
1 | C[C@H](NC(=O)Cc1cc(F)cc(F)c1)C(=O)NC(C(=O)OC(C)(C)C)c1ccccc1 (stereo partly drawn) [N-[(3,5-difluorophenyl)acetyl]-L-alanyl-2-phenyl]glycine-1,1-dimethylethyl ester] | 25–30 μm | – | – | – | – | –
2 | Lucifer yellow | – | significantly higher | similar | 1.5 | 1.5 | similar
